Calls of active or inactive are those of the source. No cut-off for these calls is given here.
Columns and labels:
HCT-116 [1] = experiment: Induction of apoptosis in human HCT-116 cells assessed as late apoptotic cells at 10 mM incubated for 48 hrs by Annexin V-FITC/PI staining based flow cytometric analysis (reference value: 2.13 %); type: functional
HCT-116 [2] = experiment: Induction of apoptosis in human HCT-116 cells assessed as necrotic cells at 2.5 mM incubated for 48 hrs by Annexin V-FITC/PI staining based flow cytometric analysis (reference value: 0.16 %); type: functional
HCT-116 [3] = experiment: Induction of apoptosis in human HCT-116 cells assessed as early apoptotic cells at 1.25 mM incubated for 48 hrs by Annexin V-FITC/PI staining based flow cytometric analysis (reference value: 55.2 %); type: functional
HCT-116 [4] = experiment: Induction of apoptosis in human HCT-116 cells assessed as late apoptotic cells at 5 mM incubated for 48 hrs by Annexin V-FITC/PI staining based flow cytometric analysis (reference value: 2.13 %); type: functional
CCD-841CoN = experiment: Cytotoxicity against human CCD-841CoN cells at 10 mM incubated for 72 hrs by MTT assay; type: toxicity, cell-based; conditions: 10000 µM
HCT-116 [5] = experiment: Induction of cell cycle arrest in human HCT-116 cells assessed as accumulation of cells at S phase at 1.25 mM incubated for 48 hrs by PI staining based flow cytometric analysis (reference value: 10 %); type: functional
HCT-116 [6] = experiment: Induction of apoptosis in human HCT-116 cells assessed as necrotic cells at 10 mM incubated for 48 hrs by Annexin V-FITC/PI staining based flow cytometric analysis (reference value: 0.16 %); type: functional
HCT-116 [7] = experiment: Induction of apoptosis in human HCT-116 cells assessed as early apoptotic cells at 10 mM incubated for 48 hrs by Annexin V-FITC/PI staining based flow cytometric analysis (reference value: 55.2 %); type: functional
HCT-116 [8] = experiment: Induction of cell cycle arrest in human HCT-116 cells assessed as accumulation of cells at G0/G1 phase at 1.25 mM incubated for 48 hrs by PI staining based flow cytometric analysis (reference value: 74.6 %); type: functional
HCT-116 [9] = experiment: Induction of apoptosis in human HCT-116 cells assessed as late apoptotic cells at 1.25 mM incubated for 48 hrs by Annexin V-FITC/PI staining based flow cytometric analysis (reference value: 2.13 %); type: functional
HCT-116 [10] = experiment: Induction of apoptosis in human HCT-116 cells assessed as necrotic cells at 1.25 mM incubated for 48 hrs by Annexin V-FITC/PI staining based flow cytometric analysis (reference value: 0.16 %); type: functional
HCT-116 [11] = experiment: Induction of cell cycle arrest in human HCT-116 cells assessed as accumulation of cells at G0/G1 phase at 10 mM incubated for 48 hrs by PI staining based flow cytometric analysis (reference value: 74.6 %); type: functional
HCT-116 [12] = experiment: Induction of apoptosis in human HCT-116 cells assessed as early apoptotic cells at 2.5 mM incubated for 48 hrs by Annexin V-FITC/PI staining based flow cytometric analysis (reference value: 55.2 %); type: functional
HCT-116 [13] = experiment: Cytotoxicity against human HCT-116 cells assessed as reduction in cell viability at 10 mM incubated for 24 hrs by MTT assay (reference value: 100%); type: functional
HCT-116 [14] = experiment: Cytotoxicity against human HCT-116 cells assessed as reduction in cell viability at 10 mM incubated for 48 hrs by MTT assay (reference value: 100%); type: functional
HCT-116 [15] = experiment: Induction of apoptosis in human HCT-116 cells assessed as necrotic cells at 5 mM incubated for 48 hrs by Annexin V-FITC/PI staining based flow cytometric analysis (reference value: 0.16 %); type: functional
HCT-116 [16] = experiment: Induction of apoptosis in human HCT-116 cells assessed as late apoptotic cells at 2.5 mM incubated for 48 hrs by Annexin V-FITC/PI staining based flow cytometric analysis (reference value: 2.13 %); type: functional
HCT-116 [17] = experiment: Induction of apoptosis in human HCT-116 cells assessed as viable cells at 2.5 mM incubated for 48 hrs by Annexin V-FITC/PI staining based flow cytometric analysis (reference value: 42.5 %); type: functional; conditions: HCT-116, 48 h, read-out: Activity
HCT-116 [18] = experiment: Induction of apoptosis in human HCT-116 cells assessed as viable cells at 5 mM incubated for 48 hrs by Annexin V-FITC/PI staining based flow cytometric analysis (reference value: 42.5 %); type: functional; conditions: HCT-116, 48 h, read-out: Activity
HCT-116 [19] = experiment: Induction of morphological changes in human HCT-116 cells assessed as rounding of cells at 2.5 to 10 mM incubated for 24 to 72 hrs by inverted microscopic analysis; type: functional, cell-based; conditions: dose 2.5-10 mM, time 24-72 hrs
HCT-116 [20] = experiment: Induction of apoptosis in human HCT-116 cells assessed as viable cells at 10 mM incubated for 48 hrs by Annexin V-FITC/PI staining based flow cytometric analysis (reference value: 42.5 %); type: functional; conditions: HCT-116, 48 h, read-out: Activity
HCT-116 [21] = experiment: Induction of morphological changes in human HCT-116 cells assessed as appearance of lobules at 2.5 to 10 mM incubated for 24 to 72 hrs by inverted microscopic analysis; type: functional, cell-based; conditions: dose 2.5-10 mM, time 24-72 hrs
HCT-116 [22] = experiment: Induction of morphological changes in human HCT-116 cells assessed as blebbing of cells at 2.5 to 10 mM incubated for 24 to 72 hrs by inverted microscopic analysis; type: functional, cell-based; conditions: dose 2.5-10 mM, time 24-72 hrs
HCT-116 [23] = experiment: Induction of morphological changes in human HCT-116 cells assessed as change in cell shape at 2.5 to 10 mM incubated for 24 to 72 hrs by inverted microscopic analysis; type: functional, cell-based; conditions: dose 2.5-10 mM, time 24-72 hrs
HCT-116 [24] = experiment: Induction of apoptosis in human HCT-116 cells assessed as increase in apoptotic rate at 5 mM incubated for 48 hrs by Annexin V-FITC/PI staining based flow cytometric analysis relative to control; type: functional

CCc1ccc(OS(=O)(=O)O)cc1
Activity (HCT-116 [1]): 50.8%
Activity (HCT-116 [2]): 0.065%
Activity (HCT-116 [3]): 68.6%
Activity (HCT-116 [4]): 19.8%
Activity (CCD-841CoN): Non-toxic
Activity (HCT-116 [5]): 9%
Activity (HCT-116 [6]): 0.067%
Activity (HCT-116 [7]): 48.3%
Activity (HCT-116 [8]): 70.8%
Activity (HCT-116 [9]): 3.78%
Activity (HCT-116 [10]): 0.048%
Activity (HCT-116 [11]): 55.4%
Activity (HCT-116 [12]): 70.1%
Activity (HCT-116 [13]): 55%
Activity (HCT-116 [14]): 24%
Activity (HCT-116 [15]): 0.076%
Activity (HCT-116 [16]): 7.36%
viability at 2500 µM (HCT-116 [17]): 22.5%
viability at 5000 µM (HCT-116 [18]): 8.22%
Activity (HCT-116 [19]): Active
viability at 10000 µM (HCT-116 [20]): 0.84%
Activity (HCT-116 [21]): Active
Activity (HCT-116 [22]): Active
Activity (HCT-116 [23]): Active
Activity (HCT-116 [24]): 81%

Reference: ChEMBL document CHEMBL6178000, “Gut Microbial Metabolite 4-Ethylphenylsulfate Is Selectively Deleterious and Anticancer to Colon Cancer Cells” (J Med Chem, 2025)
